Source: ChEMBL document CHEMBL5727558, “Organic compounds” (2020)

Key:
[1] = target: Dual specificity calcium/calmodulin-dependent 3',5'-cyclic nucleotide phosphodiesterase 1B (Homo sapiens, UniProt Q01064); test: (§1) Enzyme Assay: Assay: The following phosphodiesterase enzymes may be used: 3′,5′-cyclic-nucleotide-specific bovine brain phosphodiesterase (Sigma, St. Louis, Mo.) (predominantly PDE1B) and recombinant full length human PDE1A and PDE1B (r-hPDE1A and r-hPDE1B respectively) which may be produced e.g., in HEK or SF9 cells by one skilled in the art. The PDE1 enzyme is reconstituted with 50% glycerol to 2.5 U/ml. One unit of enzyme will hydrolyze 1.0 μmole of 3′,5′-cAMP to 5′-AMP per min at pH 7.5 at 30° C. One part enzyme is added to 1999 parts reaction buffer (30 μM CaCl2, 10 U/ml of calmodulin (Sigma P2277), 10 mM Tris-HCl pH 7.2, 10 mM MgCl2, 0.1% BSA, 0.05% NaN3) to yield a final concentration of 1.25 mU/ml. 99 μl of diluted enzyme solution is added into each well in a flat bottom 96-well polystyrene plate to which 1 μl of test compound dissolved in 100% DMSO is added. The compounds are mixed and pre-incubated with the enzyme for 10 min at room temperature.
Chain of Dual specificity calcium/calmodulin-dependent 3',5'-cyclic nucleotide phosphodiesterase 1B (Q01064 whole entry): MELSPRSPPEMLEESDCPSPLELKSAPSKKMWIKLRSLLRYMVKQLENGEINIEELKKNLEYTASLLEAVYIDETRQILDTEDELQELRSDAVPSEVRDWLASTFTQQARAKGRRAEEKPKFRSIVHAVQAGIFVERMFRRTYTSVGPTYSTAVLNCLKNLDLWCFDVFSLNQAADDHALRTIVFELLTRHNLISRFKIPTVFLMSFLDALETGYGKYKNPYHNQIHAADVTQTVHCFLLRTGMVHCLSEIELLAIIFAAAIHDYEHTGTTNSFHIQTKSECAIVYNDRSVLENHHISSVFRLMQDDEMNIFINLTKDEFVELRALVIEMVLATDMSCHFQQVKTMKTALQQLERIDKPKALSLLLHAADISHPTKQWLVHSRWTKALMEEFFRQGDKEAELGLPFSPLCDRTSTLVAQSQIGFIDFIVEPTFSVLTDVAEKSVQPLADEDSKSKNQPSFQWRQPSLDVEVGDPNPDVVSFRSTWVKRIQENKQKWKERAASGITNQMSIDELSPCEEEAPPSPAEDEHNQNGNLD

[2] = target: Dual specificity calcium/calmodulin-dependent 3',5'-cyclic nucleotide phosphodiesterase 1A (Homo sapiens, UniProt P54750); test: as §1
Chain of Dual specificity calcium/calmodulin-dependent 3',5'-cyclic nucleotide phosphodiesterase 1A (P54750 whole entry): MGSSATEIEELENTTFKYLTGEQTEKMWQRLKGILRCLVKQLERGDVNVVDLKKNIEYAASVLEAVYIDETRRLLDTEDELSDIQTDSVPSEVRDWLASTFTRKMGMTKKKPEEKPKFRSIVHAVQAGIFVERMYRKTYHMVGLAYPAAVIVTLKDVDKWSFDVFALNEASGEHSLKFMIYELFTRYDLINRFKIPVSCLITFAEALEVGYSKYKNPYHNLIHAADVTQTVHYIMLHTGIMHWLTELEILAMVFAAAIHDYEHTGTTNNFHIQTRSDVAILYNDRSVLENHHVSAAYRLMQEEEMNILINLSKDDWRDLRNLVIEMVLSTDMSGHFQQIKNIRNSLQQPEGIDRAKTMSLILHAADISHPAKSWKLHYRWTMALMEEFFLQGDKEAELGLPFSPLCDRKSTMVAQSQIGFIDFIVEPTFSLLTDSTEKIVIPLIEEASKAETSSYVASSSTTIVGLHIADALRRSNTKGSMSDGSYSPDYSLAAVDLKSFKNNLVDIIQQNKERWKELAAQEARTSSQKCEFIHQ

Compound `CC(C)Sc1c2c(nn1Cc1ccc(-c3cccc(F)n3)cc1)N1CC(C)(C)N=C1N(C)C2=O` has an IC50 [1] of 3 µM and an IC50 [2] of 0.005 µM.
